Test [1] has as its system PA14 cells. Kind of test: Live cell counts (LIVE/DEAD stain, haemocytometer) of biofilm removed from the device after antibiotic exposure. In kind it is cell-based, Pseudomonas aeruginosa. The note with it: PA14 biofilm exposed to 100 mg/L colistin sulfate, compared to 0 and 4 mg/L. The method, then: Cell viability after exposure to colistin sulfate was assessed using a LIVE/DEAD staining kit (EMD Chemicals Millipore 50-231-0606). Stains were prepared per manufacturer's operating procedure. After staining, 10 μL of sample was injected into an INCYTO C-chip disposable hemocytometer (DHC-N01). Cells were imaged using a fluorescence microscope, and the number of PA14 cells that were alive after exposure was determined using IMAGE J (ImageJ, U.S. National Institutes of Health, Bethesda, Md., USA, http://imagej.nih.gov/ij/).
The number of living cells measured after exposure to three different concentrations of colistin sulfate were compared (FIG. 11B). After the biofilm was exposed to antibiotic in the device, the PDMS chambers were peeled off and 100 μL of fresh TSB was spotted on the biofilm and pipetted vigorously to remove material from the surface of the electrode. Removed samples were used to measure live cell counts, performed with Millipore 3P Live/Dead Stain, using a haemocytometer. […] A concentration of approximately 4×10^5 live cells/mL was measured in the biofilms not exposed to colistin sulfate. […] A statistically significant reduction in the number of live PA14 cells was measured for samples exposed to 100 mg/L colistin sulfate compared to cells exposed to 0 and 4 mg/L colistin sulfate. […]

The subject of test [2] is P. aeruginosa. The conditions noted are these: literature value, cited from earlier work.
Test [3] concerns PA14. Kind of test: Growth of liquid PA14 cultures plated on cetrimide agar plates containing colistin sulfate. In kind it is cell-based, Pseudomonas aeruginosa. The method, then: FIG. 21 illustrates images of PA14 colonies after 20 hours of growth at 37° C. on cetrimide agar plates mixed with different concentrations of colistin sulfate.
Regarding FIG. 21, liquid cultures of PA14, grown over night in 3 mL of TSB, were plated directly onto cetrimide agar plates containing 0, 4, and 100 mg/L of colistin sulfate. These plates were incubated overnight at 37° C. The plates were then inspected for bacterial growth (FIG. 21).

The test system of test [4] is P. aeruginosa strain PA14 biofilms. Kind of test: Square wave voltammetry of pyocyanin produced by PA14 biofilms in a microfluidic growth chamber during antibiotic exposure. In kind it is cell-based, Pseudomonas aeruginosa. The method, then:
P. aeruginosa strain PA14 and m-cherry Escherichia coli strain K12 were used for all antibiotic tests performed. Trypticase soy broth (BD 211768) was used as the nutrient source for all bacteria grown in these tests. Colistin sulfate (Adipogen AG-CN2-0065-G001) was dissolved in trypticase soy broth (TSB) at 1 g/L and used as a stock solution. When not in use, the stock solution was stored at 4° C. Polydimethylsiloxane (Ellsworth Adhesives 184 Sil. Elast. Kit 0.5 kg) was used to prepare all microfluidic devices. Disposable three electrode cells (Zensor TE100) were used for all measurements in this study. The electrochemical cells consist of carbon working and counter electrodes with a Ag/AgCl paste reference electrode. Tubing and luer lock fittings for microfluidic connections were purchased from Amazon Supply (B001GMWZM) and Value Plastic (MTLL230). To prevent bacteria from leaving the microfluidic growth chambers, Minisart RC4 0.2 micron regenerated cellulose luer lock syringe filters (17821K) were attached to the inlets and outlets of the devices via 19 gauge luer lock syringes (NE192PL-25). A syringe pump (Harvard Apparatus Fusion 200 211097) was used to control the flow rate of growth media and antibiotic through the microfluidic chamber. Electrochemical measurements were made using a multipotentiostat (CHI 1040C A2728).
Polydimethylsiloxane (PDMS) wells were fabricated from 9 mm×9 mm tape molds made on glass slides (3M Scotch Tape, tape thickness ≈50 μm) using a standard method. […] Inlets and outlets in the wells were drilled and the resulting microfluidic devices were fabricated by irreversibly bonding PDMS to the disposable electrochemical cells using air plasma (Anatech SP-100, 5-7 s at 100 W). The microfluidic channels were filled with trypticase soy broth (TSB) at a flow rate of 10 μL/min. To facilitate complete filling of the chamber (removal of air bubbles), an empty syringe was attached to the outlet. By pulling and releasing vacuum on the outlet, TSB was pulled through the chamber displacing any air bubbles.
For antibiotic testing, cultures of PA14 and E. coli were grown over night in 3 mL of TSB (concentration approximately […]). After overnight growth, samples were centrifuged for 3 min at 10,000 rpm. The supernatant was discarded and the cultures were reconstituted in 3 mL of fresh TSB. After removing the inlet syringe filter, approximately 24 μL of reconstituted cell culture was loaded into the growth chamber at a flow rate of 10 μL/min. […] After overnight growth, flow at 0.1 μL/min was initiated with either TSB or colistin sulfate in TSB and the electrochemical response was monitored. […]

Test [5] relates to PA14. Description: Regrowth on TSB agar plates of cells taken from PDMS chambers after colistin sulfate exposure. In kind it is cell-based, Pseudomonas aeruginosa. The conditions noted are these: TSB plate. The method, then: FIG. 12 illustrates PA14 exposed to 100 mg/L and 4 mg/L colistin sulfate for 20 hours within PDMS chambers then spotted onto TSB plates. Photographs of a plate after incubation at 37° C. for A) 4.3 h, B) 6.5 h, and C) 74.3 h (removed from the incubator after 24 h to avoid drying and grown at room temperature (≈23° C.)). Arrows highlight the locations of the first observed PA14 colonies. A vertical line divides the areas on the plate where PA14 exposed to 100 mg/L (left) and 4 mg/L (right) colistin sulfate were spotted.
FIG. 22 illustrates PA14 streaked onto TSB after exposure to 100 mg/L and 4 mg/L colistin for 20 hours within PDMS flow chambers. Photographs show the plate after A) 4.33 h, B) 6.5 h, and C) 74.3 h of incubation. The plate was incubated at 37° C. for the first 24 hours, then grown at room temperature for the remaining time to prevent the agar from drying out.
The qualitative results of the live cell stain are consistent with the culture plate experiments. The live cell concentration in biofilms exposed to 100 mg/L colistin sulfate (FIG. 11B), however, is higher than expected when compared to the reduced rate of colony formation on agar plates (FIG. 12).
Regarding FIG. 22, after exposure to colistin sulpahte at 4 and 100 mg/L flowing at 100 nL/min, the PDMS chambers were peeled from the disposable electrodes. […] Samples were incubated at 37° C., and monitored for growth. […]

Where “and” joins values, the source holds several entries; their conditions need not be identical. Identical values can stand only once.

For colistin sulfate, the “reduction in the number of living cells” value in test [1] is around 2 ×. Besides, the “reported MIC (High MIC)” value in test [2] (higher MIC) was 16 µg/mL. The “reported MIC (low MIC)” value in test [2] (lower MIC) is 4 µg/mL. In addition, the “bacterial growth on plate after overnight incubation at 37° C.” value in test [3] (cetrimide agar containing 4 mg/L colistin sulfate) is listed as “showed growth”; in test [3] (cetrimide agar containing 100 mg/L colistin sulfate), “showed no colony formation”. The “average response (peak current, PYO production) compared to biofilms exposed to only TSB” value in test [4] (PA14 biofilm exposed to 4 mg/L colistin sulfate, ANOVA) is given as “no significant difference”. For the same compound, the “average percent decrease in the maximum peak current at the end of testing” value in test [4] (PA14 biofilm exposed to 100 mg/L colistin sulfate in TSB, flow 100 nL/min, compared to control cells) is on record as around 82%. Further, the “average peak current compared against the control (ANOVA)” value in test [4] (PA14 exposed to 16 and 100 mg/L colistin sulfate, P<0.05) was “significantly lower”. Besides, in test [5] (cells exposed to 4 mg/L colistin sulfate for 20 hours in chambers, 37° C.), the “incubation time after which growth (visible colonies) was observed” value is 4.3 h and 4 h. Besides, in test [5] (cells exposed to 100 mg/L colistin sulfate for 20 hours in chambers), the “growth after 6.5 h of incubation” value is listed as “No growth was observed”.

Turning to `CC1(C)S[C@@H]2[C@H](NC(=O)[C@H](N)c3ccccc3)C(=O)N2[C@H]1C(=O)O` [ampicillin], in test [4] (PA14 exposed to 100 mg/L ampicillin in TSB under flow), the “effect on PYO production (SWV response)” value is reported as “no effect on PYO production”.

These data come from patent US10316348B2, “Diagnostic system and process for rapid bacterial infection diagnosis” (priority 2014, dated 2019).
